Test results from patent publication US4357325A, “Methods of controlling Pasteurella infections” (Eli Lilly and Company, priority 1981, dated 1982).
In brackets after ≈: the same amount, converted by molar mass.

How the values were obtained:
[1] = test system: P. multocida; experiment: MIC by conventional broth-dilution assay against P. multocida strains (Table II); format: cell-based, P. multocida (avian, bovine and porcine strains); conditions: Pasteurella multocida
Description: (§1) For example, representative compounds were tested against avian, bovine and porcine Pasteurella species, using the conventional broth-dilution assay. The P. haemolytica strains are bovine strains; the P. multocida strains are avian, bovine and porcine strains.

[2] = test system: Pasteurella multocida; experiment: Treatment of Pasteurellosis in chicks (Table III); format: in vivo, chicks; avian P. multocida; conditions: 1 and 4 h post challenge, 5 days observation, ten chicks per group
Description: Representative compounds were evaluated in groups of ten one-day-old chicks at the specified dosage of subcutaneous injection given one and four hours post challenge of the chicks with Pasteurella multocida (0.1 ml of a 20-hour tryptose broth culture of an avian P. multocida given subcutaneously). The compounds (as free bases) were administered in an aqueous propylene glycol solution; non-medicated water and feed were provided to the animals ad libitum.

[3] = test system: P. haemolytica; experiment: MIC by conventional broth-dilution assay against P. haemolytica strains (Table II); format: cell-based, P. haemolytica (bovine strains); conditions: Mannheimia haemolytica
Description: as §1

[4] = test system: Pasteurella multocida; experiment: Treatment of Pasteurellosis in mice (Table IV); format: in vivo, mice; bovine isolate of P. multocida; conditions: 50 mg/kg × 2 s.c., 1 and 4 h post challenge, 7 days
Description: Cirramycin A1 and rosaramicin were evaluated in mice by subcutaneous injection given one and four hours post challenge of the mice with Pasteurella multocida (0.1 ml of a 10^-5 dilution of a tryptose broth culture of a bovine isolate). Mortality was evaluated for the following seven days.

[5] = 30 mg/kg × 2 s.c., first (or only) experiment
[6] = 30 mg/kg × 2 s.c., second experiment

Structure (SMILES) | MIC ([1]; P. multocida strain 17E) [µg/mL] | MIC ([1]; P. multocida strain 22A) [µg/mL] | MIC ([1]; P. multocida strain 40G) [µg/mL] | MIC ([1]; P. multocida strain 60A) [µg/mL] | MIC ([1]; P. multocida strain 68C) [µg/mL] | Deaths in Treated Chicks/Deaths in Infected Nonmedicated Controls [2, 5] | Deaths in Treated Chicks/Deaths in Infected Nonmedicated Controls [2, 6] | MIC ([3]; P. haemolytica strain 23A) [µg/mL] | MIC ([3]; P. haemolytica strain 23C) [µg/mL] | MIC ([3]; P. haemolytica strain 41D) [µg/mL] | No. Died/No. Treated ([4]; Test A, replicate 1) | No. Died/No. Treated ([4]; Test A, replicate 2) | No. Died/No. Treated ([4]; Test B, replicate 1) | No. Died/No. Treated ([4]; Test B, replicate 2) | Deaths in Treated Chicks/Deaths in Infected Nonmedicated Controls ([2]; 60 mg/kg × 2 s.c.)
CCC1OC(=O)CC(O)C(C)C(OC2OC(C)C(O)C(N(C)C)C2O)C(CC=O)CC(C)C(=O)C=CC2(C)OC2C1C (stereo not shown) [Cirramycin A1, cirramycin A1] | 1.56 (≈ 2.61 µM) | 3.12 (≈ 5.22 µM) | 3.12 (≈ 5.22 µM) | ≤ 0.78 | 1.56 (≈ 2.61 µM) | – | – | 3.12 (≈ 5.22 µM) | 3.12 (≈ 5.22 µM) | 3.12 (≈ 5.22 µM) | 1/5 | 2/5 | 1/5 | 0/5 | –
CCC1OC(=O)CC(O)C(C)C(OC2OC(C)C(O)C(N(C)C)C2O)C(CC=O)CC(C)C(=O)C=CC(C)=CC1C (stereo not shown) [DOMT, 23-deoxy-5-O-mycaminosyltylonolide] | 1.56 (≈ 2.68 µM) | 1.56 (≈ 2.68 µM) | 3.12 (≈ 5.36 µM) | ≤ 0.78 | ≤ 0.78 | 1/9 | 1/10 | 3.12 (≈ 5.36 µM) | 3.12 (≈ 5.36 µM) | 6.75 (≈ 11.6 µM) | – | – | – | – | –
CC[C@H]1OC(=O)C[C@@H](O)[C@H](C)[C@@H](O[C@@H]2O[C@H](C)C[C@H](N(C)C)[C@H]2O)[C@@H](CC=O)C[C@@H](C)C(=O)/C=C/[C@]2(C)O[C@H]2[C@@H]1C [Rosaramicin, rosaramicin] | ≤ 0.78 | 1.56 (≈ 2.68 µM) | 1.56 (≈ 2.68 µM) | ≤ 0.78 | ≤ 0.78 | 5/8 | – | 1.56 (≈ 2.68 µM) | 12.5 (≈ 21.5 µM) | 1.56 (≈ 2.68 µM) | 0/5 | 0/5 | 0/5 | 3/5 | 2/8

More lines, main results first:

MIC ([1]; P. multocida strain 17E) [µg/mL] | MIC ([1]; P. multocida strain 22A) [µg/mL] | MIC ([1]; P. multocida strain 40G) [µg/mL] | MIC ([1]; P. multocida strain 60A) [µg/mL] | MIC ([1]; P. multocida strain 68C) [µg/mL] | Structure (SMILES) | Deaths in Treated Chicks/Deaths in Infected Nonmedicated Controls [2, 5] | Deaths in Treated Chicks/Deaths in Infected Nonmedicated Controls [2, 6] | MIC ([3]; P. haemolytica strain 23A) [µg/mL] | MIC ([3]; P. haemolytica strain 23C) [µg/mL] | MIC ([3]; P. haemolytica strain 41D) [µg/mL] | No. Died/No. Treated ([4]; Test A, replicate 1) | No. Died/No. Treated ([4]; Test A, replicate 2) | No. Died/No. Treated ([4]; Test B, replicate 1) | No. Died/No. Treated ([4]; Test B, replicate 2) | Deaths in Treated Chicks/Deaths in Infected Nonmedicated Controls ([2]; 60 mg/kg × 2 s.c.)
12.5 (≈ 16.2 µM) | 12.5 (≈ 16.2 µM) | 12.5 (≈ 16.2 µM) | 12.5 (≈ 16.2 µM) | 12.5 (≈ 16.2 µM) | CCC1OC(=O)CC(O)C(C)C(OC2OC(C)C(O)C(N(C)C)C2O)C(CC=O)CC(C)C(O)C=CC(C)=CC1COC1OC(C)C(O)C(OC)C1OC (stereo not shown) [9-Dihydrodesmycosin, 9-dihydrodesmycosin] | 3/10 | 0/10 | 25 (≈ 32.3 µM) | 25 (≈ 32.3 µM) | 25 (≈ 32.3 µM) | – | – | – | – | –
25 (≈ 32.3 µM) | 25 (≈ 32.3 µM) | 50 (≈ 64.6 µM) | 25 (≈ 32.3 µM) | 6.25 (≈ 8.08 µM) | CCC1OC(=O)CC(O)C(C)C(OC2OC(C)C(O)C(N(C)C)C2O)C(CCO)CC(C)C(=O)C=CC(C)=CC1COC1OC(C)C(O)C(OC)C1OC (stereo not shown) [20-Dihydrodesmycosin, 20-dihydrodesmycosin] | 0/10 | 0/10 | 50 (≈ 64.6 µM) | 50 (≈ 64.6 µM) | 50 (≈ 64.6 µM) | – | – | – | – | –
12.5 (≈ 16.2 µM) | 12.5 (≈ 16.2 µM) | 25 (≈ 32.4 µM) | 12.5 (≈ 16.2 µM) | 6.25 (≈ 8.1 µM) | CCC1OC(=O)CC(O)C(C)C(OC2OC(C)C(O)C(N(C)C)C2O)C(CC=O)CC(C)C(=O)C=CC(C)=CC1COC1OC(C)C(O)C(OC)C1OC (stereo not shown) [Desmycosin, desmycosin] | 0/10 | 0/10 | 25 (≈ 32.4 µM) | 25 (≈ 32.4 µM) | 25 (≈ 32.4 µM) | – | – | – | – | –
12.5 (≈ 16.5 µM) | 12.5 (≈ 16.5 µM) | 25 (≈ 33 µM) | 6.25 (≈ 8.25 µM) | 6.25 (≈ 8.25 µM) | CCC1OC(=O)CC(O)C(C)C(OC2OC(C)C(O)C(N(C)C)C2O)C(CC=O)CC(C)C(=O)C=CC(C)=CC1COC1OC(C)C(O)C(O)C1OC (stereo not shown) [Lactenocin, lactenocin] | 0/10 | 0/10 | 25 (≈ 33 µM) | 25 (≈ 33 µM) | 50 (≈ 66 µM) | – | – | – | – | –
